Patent US20230085307A1, “PYRIDAZINONE COMPOUND AND HERBICIDE” (NISSAN CHEMICAL CORPORATION, priority 2019, published 2023)

How the values were obtained:
late watergrass = assay: Test Example 1: herbicidal activity, application before weed generation under submerged conditions (Table 16, symbol A); format: in vivo, late watergrass (Echinochloa oryzicola); conditions: 320 g/ha applied herbicide
Outline: (§1)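 Submerged Wagner pots (alluvial soil, 4 cm water) sown with weed seeds and planted with 2.5-leaf rice seedlings; emulsifiable concentrate diluted in water applied to water surface on sowing day. Held in greenhouse at 25-30 °C; injury scored 0-5 by herbicidal rate after three weeks.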

oval-leafed pondweed [1] = assay: Test Example 1: herbicidal activity, application before weed generation under submerged conditions (Table 16, symbol C); format: in vivo, oval-leafed pondweed (Monochoria vaginalis); conditions: 320 g/ha applied herbicide
Outline: as §1

Japanese bulrush = assay: Test Example 2: herbicidal activity, application during weed generation under submerged conditions (Table 17, symbol B); format: in vivo, Japanese bulrush (Schoenoplectus juncoides); conditions: AAH 320 g/ha; application during weed generation, submerged conditions
Outline: (§2)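 Herbicide emulsion, diluted with water to the chosen amount, is applied onto 4 cm floodwater over alluvial soil where the weeds were co-sown and raised at 25–30° C. Application timing: 1–2 leaves. Assessment: three weeks afterwards.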

oval-leafed pondweed [2] = assay: Test Example 2: herbicidal activity, application during weed generation under submerged conditions (Table 17, symbol C); format: in vivo, oval-leafed pondweed (Monochoria vaginalis); conditions: AAH 320 g/ha; application during weed generation, submerged conditions
Outline: as §2

rice flat sedge = assay: Test Example 3: herbicidal effect by foliage application, Wagner pot (Table 18, symbol E); format: in vivo, rice flat sedge (Cyperus iria); conditions: 320 g/ha
Outline: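 Plants were sown in alluvial soil held under 0.1–0.5 cm standing water and grown 14 days in a greenhouse at 25–30 °C. An emulsifiable formulation, water-diluted to the set dose, was then sprayed onto the foliage, and effects were scored three weeks later using previously defined criteria.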

wild oat = assay: Test Example 4: herbicidal effect by soil treatment (Table 19, symbol I); format: in vivo, wild oat (Avena fatua); conditions: for herbicidal effect rating, I: wild oat: amount of applied herbicide 320 g/ha; for I: wild oat, herbicidal effect rating: AAH 320 g/ha
Outline: (§3)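 Emulsion of test compound, water-diluted to predetermined amount, sprayed on soil after sowing (seed depth ~1.5 cm, sterilized diluvial soil). Greenhouse, 25–30° C. Effect graded at three weeks post-spray.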

Italian ryegrass = assay: Test Example 4: herbicidal effect by soil treatment (Table 19, symbol K); format: in vivo, Italian ryegrass (Lolium multiflorum); conditions: for herbicidal effect rating, K: Italian ryegrass: amount of applied herbicide 320 g/ha; for K: Italian ryegrass, herbicidal effect rating: AAH 320 g/ha
Outline: as §3

windgrass = assay: Test Example 4: herbicidal effect by soil treatment (Table 19, symbol L); format: in vivo, windgrass (Apera spica-venti); conditions: for herbicidal effect rating, L: windgrass: amount of applied herbicide 320 g/ha; for L: windgrass, herbicidal effect rating: AAH 320 g/ha
Outline: as §3

persian speedwell [3] = assay: Test Example 4: herbicidal effect by soil treatment (Table 19, symbol R); format: in vivo, Persian speedwell (Veronica persica); conditions: for herbicidal effect rating, R: persian speedwell: amount of applied herbicide 320 g/ha; for R: persian speedwell, herbicidal effect rating: AAH 320 g/ha
Outline: as §3

southern crabgrass = assay: Test Example 5: herbicidal effect by foliage application, plastic box (Table 20, symbol F); format: in vivo, southern crabgrass (Digitaria ciliaris); conditions: foliage application, three weeks after application; for herbicidal effect grade, F: southern crabgrass: 320 g/ha; for F: southern crabgrass, herbicidal effect: AAH 320 g/ha
Outline: (§4)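 Post-emergence foliar test in sterilized diluvial soil. Compound applied as water-diluted emulsion at a predetermined rate to 14-day-old plants; evaluation at three weeks.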

green foxtail = assay: Test Example 5: herbicidal effect by foliage application, plastic box (Table 20, symbol G); format: in vivo, green foxtail (Setaria viridis); conditions: foliage application, three weeks after application; for herbicidal effect grade, G: green foxtail: 320 g/ha; for G: green foxtail, herbicidal effect: AAH 320 g/ha
Outline: as §4

barnyard grass = assay: Test Example 5: herbicidal effect by foliage application, plastic box (Table 20, symbol H); format: in vivo, barnyard grass (Echinochloa crus-galli); conditions: foliage application, three weeks after application; for herbicidal effect grade, H: barnyard grass: 320 g/ha; for H: barnyard grass, herbicidal effect: AAH 320 g/ha
Outline: as §4

velvetleaf = assay: Test Example 5: herbicidal effect by foliage application, plastic box (Table 20, symbol M); format: in vivo, velvetleaf (Abutilon theophrasti); conditions: foliage application, three weeks after application; for herbicidal effect grade, M: velvetleaf: 320 g/ha; for M: velvetleaf, herbicidal effect: AAH 320 g/ha
Outline: as §4

redroot pigweed = assay: Test Example 5: herbicidal effect by foliage application, plastic box (Table 20, symbol N); format: in vivo, redroot pigweed (Amaranthus retroflexus); conditions: foliage application, three weeks after application; for herbicidal effect grade, N: redroot pigweed: 320 g/ha; for N: redroot pigweed, herbicidal effect: AAH 320 g/ha
Outline: as §4

chickweed = assay: Test Example 5: herbicidal effect by foliage application, plastic box (Table 20, symbol P); format: in vivo, common chickweed (Stellaria media); conditions: foliage application, three weeks after application; for herbicidal effect grade, P: chickweed: 320 g/ha; for P: chickweed, herbicidal effect: AAH 320 g/ha
Outline: as §4

persian speedwell [4] = assay: Test Example 5: herbicidal effect by foliage application, plastic box (Table 20, symbol R); format: in vivo, Persian speedwell (Veronica persica); conditions: foliage application, three weeks after application; for herbicidal effect grade, R: persian speedwell: 320 g/ha; for R: persian speedwell, herbicidal effect: AAH 320 g/ha
Outline: as §4

| SMILES | Herbicidal effect on A: late watergrass (grade 0-5) (late watergrass) | Herbicidal effect on C: oval-leafed pondweed (grade 0-5) (oval-leafed pondweed [1]) | herbicidal effect rating, B: Japanese bulrush (Japanese bulrush) | herbicidal effect rating, C: oval-leafed pondweed (oval-leafed pondweed [2]) | herbicidal effect on E (rice flat sedge), rating 0-5 (rice flat sedge) | herbicidal effect rating, I: wild oat (wild oat) | herbicidal effect rating, K: Italian ryegrass (Italian ryegrass) | herbicidal effect rating, L: windgrass (windgrass) | herbicidal effect rating, R: persian speedwell (persian speedwell [3]) | herbicidal effect grade, F: southern crabgrass (southern crabgrass) | herbicidal effect grade, G: green foxtail (green foxtail) | herbicidal effect grade, H: barnyard grass (barnyard grass) | herbicidal effect grade, M: velvetleaf (velvetleaf) | herbicidal effect grade, N: redroot pigweed (redroot pigweed) | herbicidal effect grade, P: chickweed (chickweed) | herbicidal effect grade, R: persian speedwell (persian speedwell [4]) | I: wild oat, herbicidal effect rating (wild oat) | K: Italian ryegrass, herbicidal effect rating (Italian ryegrass) | L: windgrass, herbicidal effect rating (windgrass) | R: persian speedwell, herbicidal effect rating (persian speedwell [3]) | other results |
| --- | --- | --- | --- | --- | --- | --- | --- | --- | --- | --- | --- | --- | --- | --- | --- | --- | --- | --- | --- | --- | --- |
| COc1ccc(-c2sc3ccccc3c2-c2c(O)c(C)nn(C)c2=O)cc1OC [1-072] | 3 (Herbicidal rate of 40% or more and less than 70%) | 0 (Herbicidal rate of 5% or less (almost no effect)) | 3 (Herbicidal rate of 40% or more and less than 70%) | 5 (Herbicidal rate of 90% or more (almost completely withered)) | 5 (Herbicidal rate of 90% or more (almost completely withered)) | 2 (Herbicidal rate of 20% or more and less than 40%) | 5 (Herbicidal rate of 90% or more (almost completely withered)) | 0 (Herbicidal rate of 5% or less (almost no effect)) | 5 (Herbicidal rate of 90% or more (almost completely withered)) | 5 (Herbicidal rate of 90% or more (almost completely withered)) | 5 (Herbicidal rate of 90% or more (almost completely withered)) | 5 (Herbicidal rate of 90% or more (almost completely withered)) | 5 (Herbicidal rate of 90% or more (almost completely withered)) | 5 (Herbicidal rate of 90% or more (almost completely withered)) | 5 (Herbicidal rate of 90% or more (almost completely withered)) | 5 (Herbicidal rate of 90% or more (almost completely withered)) | – | – | – | – | – |
| Cc1nn(C)c(=O)c(-c2c(-c3ccc4c(c3)OCO4)sc3ccccc23)c1O [1-087] | 3 (Herbicidal rate of 40% or more and less than 70%) | 0 (Herbicidal rate of 5% or less (almost no effect)) | 1 (Herbicidal rate of 5% or more and less than 20%) | 3 (Herbicidal rate of 40% or more and less than 70%) | 5 (Herbicidal rate of 90% or more (almost completely withered)) | 0 (Herbicidal rate of 5% or less (almost no effect)) | 3 (Herbicidal rate of 40% or more and less than 70%) | 0 (Herbicidal rate of 5% or less (almost no effect)) | 5 (Herbicidal rate of 90% or more (almost completely withered)) | 5 (Herbicidal rate of 90% or more (almost completely withered)) | 5 (Herbicidal rate of 90% or more (almost completely withered)) | 4 (Herbicidal rate of 70% or more and less than 90%) | 4 (Herbicidal rate of 70% or more and less than 90%) | 5 (Herbicidal rate of 90% or more (almost completely withered)) | 5 (Herbicidal rate of 90% or more (almost completely withered)) | 5 (Herbicidal rate of 90% or more (almost completely withered)) | – | – | – | – | – |
| CCCC(=O)Oc1c(C)nn(C)c(=O)c1-c1c(-c2ccc(C(F)(F)F)cc2)sc2ccccc12 [1-130] | 3 (Herbicidal rate of 40% or more and less than 70%) | 3 (Herbicidal rate of 40% or more and less than 70%) | 2 (Herbicidal rate of 20% or more and less than 40%) | 0 (Herbicidal rate of 5% or less (almost no effect)) | 5 (Herbicidal rate of 90% or more (almost completely withered)) | – | – | – | – | – | – | – | – | – | – | – | 0 (Herbicidal rate of 5% or less (almost no effect)) | 4 (Herbicidal rate of 70% or more and less than 90%) | 0 (Herbicidal rate of 5% or less (almost no effect)) | 3 (Herbicidal rate of 40% or more and less than 70%) | F: southern crabgrass, herbicidal effect (southern crabgrass): 0 (Herbicidal rate of 5% or less (almost no effect)); G: green foxtail, herbicidal effect (green foxtail): 0 (Herbicidal rate of 5% or less (almost no effect)); H: barnyard grass, herbicidal effect (barnyard grass): 0 (Herbicidal rate of 5% or less (almost no effect)); M: velvetleaf, herbicidal effect (velvetleaf): 5 (Herbicidal rate of 90% or more (almost completely withered)); N: redroot pigweed, herbicidal effect (redroot pigweed): 4 (Herbicidal rate of 70% or more and less than 90%); P: chickweed, herbicidal effect (chickweed): 5 (Herbicidal rate of 90% or more (almost completely withered)); R: persian speedwell, herbicidal effect (persian speedwell [4]): 5 (Herbicidal rate of 90% or more (almost completely withered)) |
| C#CCOc1ccc(-c2sc3ccccc3c2-c2c(O)c(C)nn(C)c2=O)cc1 [1-136] | 3 (Herbicidal rate of 40% or more and less than 70%) | 0 (Herbicidal rate of 5% or less (almost no effect)) | 2 (Herbicidal rate of 20% or more and less than 40%) | 0 (Herbicidal rate of 5% or less (almost no effect)) | 5 (Herbicidal rate of 90% or more (almost completely withered)) | – | – | – | – | – | – | – | – | – | – | – | 0 (Herbicidal rate of 5% or less (almost no effect)) | 5 (Herbicidal rate of 90% or more (almost completely withered)) | 0 (Herbicidal rate of 5% or less (almost no effect)) | 4 (Herbicidal rate of 70% or more and less than 90%) | F: southern crabgrass, herbicidal effect (southern crabgrass): 0 (Herbicidal rate of 5% or less (almost no effect)); G: green foxtail, herbicidal effect (green foxtail): 5 (Herbicidal rate of 90% or more (almost completely withered)); H: barnyard grass, herbicidal effect (barnyard grass): 4 (Herbicidal rate of 70% or more and less than 90%); M: velvetleaf, herbicidal effect (velvetleaf): 4 (Herbicidal rate of 70% or more and less than 90%); N: redroot pigweed, herbicidal effect (redroot pigweed): 4 (Herbicidal rate of 70% or more and less than 90%); P: chickweed, herbicidal effect (chickweed): 5 (Herbicidal rate of 90% or more (almost completely withered)); R: persian speedwell, herbicidal effect (persian speedwell [4]): 5 (Herbicidal rate of 90% or more (almost completely withered)) |
